According to US9879243B2, “Culture medium for cell growth and transfection” (LIFE TECHNOLOGIES CORPORATION, priority 2001, dated 2018):

How the values were obtained:
[1] = test system: 293 cells; test: β-galactosidase expression after transfection (pCMV-SPORT-β-gal, LIPOFECTAMINE 2000) of 293 cells in monolayer culture, 24-well plates; assay type: cell-based, human; conditions: Table 8, replacement compounds 25 μM in test media, 24 hrs post-transfection
Procedure: When cultured in suspension, cells were split to 3×10^5 viable cells per ml at each passage. On the week of transfection cells were seeded at 3×10^5 viable cells per ml. After ˜48 hrs of growth (day 2) cells were vortexed for 30 seconds and counted and appropriate volumes used for transfection as described in procedures below.
In addition, the base media comprises 2.4 g/L NaHCO3, 2.98 g/L Hepes, 4 mM L-glutamine and 3 ml/L PLURONIC F-68 (Invitrogen Corp., Carlsbad, Calif.).
The osmolarity is adjusted to from about 275-310 mOsm, preferably about 280 mOsm and the pH is adjusted to from about 7.0 to about 7.45 preferably about 7.4 respectively.
Three wells were set up for each treatment. A volume of media corresponding to 3×10^6 viable cells was centrifuged. The supernatant was removed and the cells re-suspended in 600 μl test media. Each well of a 24 well plate received 200 μl of the re-suspended cells.
To prepare the nucleic acid for the transfection experiments, 93 μl test media+3 μl DNA+24 μl LIPOFECTAMINE 2000 were combined in a microfuge tube and complexed for 30 minutes. A 40 μl aliquot of complex was added to each well. 250 μl test media was added to each well five hours after addition of complex. The final cell concentration was 1×10^6 viable cells per well; the final DNA concentration was 1 μg per 1×10^6 viable cells and the final LIPOFECTAMINE 2000 concentration was 8 μl per 1×10^6 viable cells.
24 hrs post-transfection, samples were collected for β-galactosidase quantitation. The contents of duplicate wells were pooled (i.e. ˜2×10^6 cells for the assay) for each sample and transferred to a microfuge tube. The cells were centrifuged, the supernatant was removed and the cells were re-suspended in 1 ml of D-PBS. The cells were pelleted a second time and re-suspended in 1 ml of D-PBS. The samples were then stored at −70° C. Prior to the assay for β-galactosidase, samples were freeze-thawed a total of five times.
293 cells were grown in monolayer culture in the presence of the various replacement compounds indicated and transfection experiments performed as described above. The results are shown in Table 8 and the values are β-galactosidase activity expressed as nanograms of β-galactosidase per 2×10^6 cells. A comparison was made between the transfection efficiency of DNA complexes formed in D-MEM medium and DNA complexes formed in test medium. […]
For cells transfected in 24-well plates, cells densities used were 1×10^6 viable cells per well.

[2] = test system: 293 cells; test: Effect of replacement compounds on the growth of 293 cells in 293 SFM without transferrin, three passages; assay type: cell-based, human; conditions: third passage, control 5 μg/mL human holo-transferrin
[3] = test system: Sp2/0 cells; test: Effect of replacement compounds on the growth of Sp2/0 cells in CD Hybridoma medium without transferrin, three passages; assay type: cell-based; conditions: third passage
[4] = 25 μM, iron equimolar where combined
[5] = 25 μM, control 5 μg/mL human holo-transferrin

Compound	β-galactosidase activity; D-MEM used for complexing, Test media to re-suspend cells [1]	β-galactosidase activity; Test Media used for complexing and to re-suspend cells [1]	mean percentage of control growth [2, 4]	mean percentage of control growth ([2]; 50 μM)	mean percentage of control growth ([2]; 100 μM)	mean percentage of control growth [3, 5]	mean percentage of control growth ([3]; 50 μM)	mean percentage of control growth ([3]; 100 μM)
Diethylenetriamine Penta-Acetic Acid•Ferrous Sulfate	234 nanograms of β-galactosidase per 2×10^6 cells	720 nanograms of β-galactosidase per 2×10^6 cells	77 percentage of control growth	107 percentage of control growth	85 percentage of control growth	54 percentage of control growth	90 percentage of control growth	91 percentage of control growth
CCc1occc(=O)c1O [2-Ethyl-3-Hydroxy-4-Pyrone]	378 nanograms of β-galactosidase per 2×10^6 cells	1827 nanograms of β-galactosidase per 2×10^6 cells	59 percentage of control growth	120 percentage of control growth	126 percentage of control growth	0 percentage of control growth	75 percentage of control growth	116 percentage of control growth
